Results as given in ChEMBL document CHEMBL1201862, “PubChem BioAssay data set” (2004).
Values belong to the compound of their own block, whether it stands above or below them. The source made the active and inactive calls.

Assays:
[1] = target: T1, Sentrin-specific protease 1 (Homo sapiens, UniProt Q9P0U3); test: potency of human SENP1 inhibitors, dose response, biochemical, kinetic FRET (AID 651697); format: functional; conditions: read-out: IC50_Mean
[2] = target: T1, Sentrin-specific protease 1; test: Dose response confirmation of small molecule inhibitors of the catalytic domain of the SUMO protease, SENP1 in a FRET assay.; format: functional; conditions: read-out: IC50_Mean
[3] = A549 cell cytotoxicity, dose response, cytotoxicity control, plate reader, cherry-pick, antagonist series (AID 743412); format: functional, cell-based
[4] = HepG2 cell cytotoxicity, dose response, cytotoxicity control, plate reader, cherry-pick, antagonist series (AID 743416); format: functional, cell-based
[5] = LGR2 antagonists, dose response, cell-based, HEK293, CRE-luciferase reporter, cherry pick, set 2 (AID 743343); format: functional;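 note: transfected cells were stimulated with diluted bursicon conditioned medium after compound addition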
[6] = HepG2 cell cytotoxicity, dose response, cytotoxicity control, ATP luminescence, cherry-pick, activator set 2 (AID 1053143); format: functional, cell-based
[7] = MC4R antagonists, dose response, counter-screen for LGR2 antagonist project, cell-based, plate reader, cherry pick (AID 743444); format: functional;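 note: transfected HEK 293 cells stimulated with alpha-MSH peptide; potency of inhibitors of the alpha-MSH evoked signal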
[8] = HEK293 cell cytotoxicity, dose response, cytotoxicity control, plate reader, cherry-picked samples (AID 743446); format: functional, cell-based
[9] = target: T2, Low molecular weight phosphotyrosine protein phosphatase (Homo sapiens, UniProt P24666); format: functional; conditions: read-out: IC50_Mean
T2 sequence (P24666 whole entry): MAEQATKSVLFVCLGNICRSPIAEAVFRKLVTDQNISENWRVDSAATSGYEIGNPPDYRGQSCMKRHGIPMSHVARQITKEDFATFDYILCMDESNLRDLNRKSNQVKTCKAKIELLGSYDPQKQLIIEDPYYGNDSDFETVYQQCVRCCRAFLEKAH

[10] = target: T2, Low molecular weight phosphotyrosine protein phosphatase; format: functional; conditions: read-out: IC50_Mean; remark: listed apart in the source
INS1 = test: beta cell apoptosis inhibitors, cytokine rescue, dose response, luminescence, retest (AID 449756); format: functional, cell-based; conditions: Rattus norvegicus;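 note: cell death triggered by IL-1 beta plus TNF-alpha plus IFN-gamma mixture; protective hits raise ATP signal compared with cytokine alone wells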
Protein Wnt-3a = Protein Wnt-3a (Mus musculus, UniProt P27467); test: Wnt3a-driven reporter signaling inhibition, dose response, selectivity assay for Gli-SUFU antagonist project, Wnt-LIGHT cells, luminescence (AID 651570); format: functional; conditions: read-out: IC50_Mean;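 note: Wnt-LIGHT reporter cells stimulated with conditioned medium from Wnt3a-producing cells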
Chain of Protein Wnt-3a (P27467 whole entry, the tested form may be a part): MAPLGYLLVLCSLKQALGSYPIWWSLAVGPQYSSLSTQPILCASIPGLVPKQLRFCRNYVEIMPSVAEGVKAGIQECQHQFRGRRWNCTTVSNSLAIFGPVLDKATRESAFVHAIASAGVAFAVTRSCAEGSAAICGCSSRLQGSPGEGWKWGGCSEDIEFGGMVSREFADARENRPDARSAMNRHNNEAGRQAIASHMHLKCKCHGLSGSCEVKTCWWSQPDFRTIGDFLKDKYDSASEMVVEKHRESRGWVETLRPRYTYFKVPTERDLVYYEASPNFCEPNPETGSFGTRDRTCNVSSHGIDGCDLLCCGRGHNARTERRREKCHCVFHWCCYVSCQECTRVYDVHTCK

[11] = target: Photoreceptor-specific nuclear receptor (Homo sapiens, UniProt Q9Y5X4); format: functional, cell-based;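 note: CHO-S cells with Gal4-NCOR and VP16-NR2E3 two-hybrid luciferase reporter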
Chain of Photoreceptor-specific nuclear receptor (Q9Y5X4 whole entry, the tested form may be a part): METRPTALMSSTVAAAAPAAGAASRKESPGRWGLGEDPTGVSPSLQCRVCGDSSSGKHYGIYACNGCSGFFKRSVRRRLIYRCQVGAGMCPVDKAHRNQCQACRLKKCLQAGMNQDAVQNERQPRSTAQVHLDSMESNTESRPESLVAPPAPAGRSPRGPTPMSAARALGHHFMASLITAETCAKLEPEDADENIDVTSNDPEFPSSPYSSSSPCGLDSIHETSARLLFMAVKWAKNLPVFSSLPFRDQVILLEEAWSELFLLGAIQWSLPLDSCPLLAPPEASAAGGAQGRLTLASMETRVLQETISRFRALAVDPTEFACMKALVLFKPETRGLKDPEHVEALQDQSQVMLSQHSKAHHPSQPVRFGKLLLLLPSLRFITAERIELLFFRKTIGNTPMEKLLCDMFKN

[12] = target: ADP-ribosylation factor GTPase-activating protein 1 (Rattus norvegicus, UniProt Q62848); test: Fluorescence polarization-based biochemical high throughput dose response screening assay to identify inhibitors of ADP-ribosylation factor GTPase activating protein 1 (ARFGAP1).; format: functional
Chain of ADP-ribosylation factor GTPase-activating protein 1 (Q62848 whole entry, the tested form may be a part): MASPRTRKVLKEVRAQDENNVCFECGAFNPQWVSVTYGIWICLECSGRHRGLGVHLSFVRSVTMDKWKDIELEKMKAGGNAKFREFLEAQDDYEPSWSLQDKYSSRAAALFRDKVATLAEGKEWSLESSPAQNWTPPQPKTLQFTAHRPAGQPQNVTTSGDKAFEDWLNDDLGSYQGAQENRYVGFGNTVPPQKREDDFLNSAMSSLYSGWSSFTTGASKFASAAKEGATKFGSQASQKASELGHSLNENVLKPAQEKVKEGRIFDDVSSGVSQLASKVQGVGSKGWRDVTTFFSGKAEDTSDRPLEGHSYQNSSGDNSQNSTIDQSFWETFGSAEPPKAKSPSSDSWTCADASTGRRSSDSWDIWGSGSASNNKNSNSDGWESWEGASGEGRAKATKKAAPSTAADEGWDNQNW

[13] = target: Arf-GAP with SH3 domain, ANK repeat and PH domain-containing protein 1 (Homo sapiens, UniProt Q9ULH1); format: functional;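 note: biochemical fluorescence polarization dose–response screen measuring inhibition of ASAP1; ASAP1 GAP domain stimulating GTP hydrolysis by truncated human ARF1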
Chain of Arf-GAP with SH3 domain, ANK repeat and PH domain-containing protein 1 (Q9ULH1 whole entry, the tested form may be a part): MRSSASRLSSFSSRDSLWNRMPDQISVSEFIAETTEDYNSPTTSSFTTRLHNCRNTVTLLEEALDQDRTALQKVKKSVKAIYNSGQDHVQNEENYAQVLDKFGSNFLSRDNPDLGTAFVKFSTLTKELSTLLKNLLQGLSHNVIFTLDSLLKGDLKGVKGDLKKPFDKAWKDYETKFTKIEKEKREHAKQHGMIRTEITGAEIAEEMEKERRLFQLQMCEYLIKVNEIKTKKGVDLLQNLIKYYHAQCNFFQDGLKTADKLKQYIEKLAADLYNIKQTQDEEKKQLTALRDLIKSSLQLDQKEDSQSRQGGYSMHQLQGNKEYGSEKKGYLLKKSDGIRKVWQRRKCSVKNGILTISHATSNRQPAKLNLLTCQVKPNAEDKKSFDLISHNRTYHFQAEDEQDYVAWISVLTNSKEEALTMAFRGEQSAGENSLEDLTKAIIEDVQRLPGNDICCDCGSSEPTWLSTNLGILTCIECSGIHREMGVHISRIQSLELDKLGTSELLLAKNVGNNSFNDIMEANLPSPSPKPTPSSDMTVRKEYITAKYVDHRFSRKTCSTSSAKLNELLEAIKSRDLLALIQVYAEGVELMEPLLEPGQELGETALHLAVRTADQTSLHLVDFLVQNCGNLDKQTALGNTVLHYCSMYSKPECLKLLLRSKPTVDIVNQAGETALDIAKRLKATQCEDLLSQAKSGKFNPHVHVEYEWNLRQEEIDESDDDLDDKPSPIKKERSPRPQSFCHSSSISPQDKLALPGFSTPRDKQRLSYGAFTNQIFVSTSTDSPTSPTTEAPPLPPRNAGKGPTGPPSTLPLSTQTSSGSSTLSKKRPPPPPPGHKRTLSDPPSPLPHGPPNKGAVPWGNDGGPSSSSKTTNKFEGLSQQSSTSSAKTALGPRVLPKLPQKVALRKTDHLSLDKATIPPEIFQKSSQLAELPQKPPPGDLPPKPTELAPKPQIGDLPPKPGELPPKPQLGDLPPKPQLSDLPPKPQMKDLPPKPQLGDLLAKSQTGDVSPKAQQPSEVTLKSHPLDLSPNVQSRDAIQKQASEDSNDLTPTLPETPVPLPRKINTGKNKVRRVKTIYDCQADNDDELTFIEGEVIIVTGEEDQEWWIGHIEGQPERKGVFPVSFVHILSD

[14] = target: T3, Corticotropin-releasing factor receptor 2/Corticotropin-releasing factor-binding protein (Homo sapiens, UniProt P24387+Q13324); test: Dose Response confirmation of uHTS hits for small molecule antagonists of the CRF-binding protein and CRF-R2 receptor complex.; format: functional; conditions: read-out: IC50_Mean
T3 sequence (Q13324 whole entry): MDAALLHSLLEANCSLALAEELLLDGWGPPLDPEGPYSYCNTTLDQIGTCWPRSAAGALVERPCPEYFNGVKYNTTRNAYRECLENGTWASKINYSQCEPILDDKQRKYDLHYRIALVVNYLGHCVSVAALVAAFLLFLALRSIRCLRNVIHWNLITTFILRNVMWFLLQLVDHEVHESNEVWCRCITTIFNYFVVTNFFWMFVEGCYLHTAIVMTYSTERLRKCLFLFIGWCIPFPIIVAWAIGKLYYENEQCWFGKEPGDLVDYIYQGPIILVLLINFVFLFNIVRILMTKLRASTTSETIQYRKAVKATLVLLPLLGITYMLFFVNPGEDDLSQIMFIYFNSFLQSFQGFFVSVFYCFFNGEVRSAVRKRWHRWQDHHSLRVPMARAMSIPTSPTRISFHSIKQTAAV
T3 sequence (P24387 whole entry): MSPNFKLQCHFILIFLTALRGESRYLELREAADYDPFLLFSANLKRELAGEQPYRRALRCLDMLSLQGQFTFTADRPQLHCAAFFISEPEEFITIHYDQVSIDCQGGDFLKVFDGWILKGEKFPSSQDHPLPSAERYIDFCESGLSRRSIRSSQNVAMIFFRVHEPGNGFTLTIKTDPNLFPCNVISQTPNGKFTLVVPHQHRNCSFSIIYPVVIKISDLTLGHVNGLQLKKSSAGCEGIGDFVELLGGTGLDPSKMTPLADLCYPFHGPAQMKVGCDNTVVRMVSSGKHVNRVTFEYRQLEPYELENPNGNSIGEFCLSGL

[15] = target: T3, Corticotropin-releasing factor receptor 2/Corticotropin-releasing factor-binding protein; test: activators of CRF receptor 2 with binding protein – uHTS hits, confirmation (AID 602473); format: functional; conditions: read-out: EC50_Mean
[16] = CRF-BP/CRF-R2 complex antagonists, dose response, cell-based, uHTS hits, 384-well (AID 651639); format: functional, Homo sapiens; conditions: read-out: IC50_Mean
[17] = target: Tyrosine-protein phosphatase non-receptor type 11 (Homo sapiens, UniProt Q06124); test: SHP2 phosphatase inhibition, dose response, selectivity assay for STEP inhibitor project, biochemical (AID 602367); format: functional; conditions: read-out: IC50_Mean
[18] = target: Tyrosine-protein phosphatase non-receptor type 5 (Homo sapiens, UniProt P54829); test: STEP phosphatase inhibitors, confirmation, biochemical, fluorescence intensity, uHTS hits (AID 602372); format: functional; conditions: read-out: IC50_Mean
Chain of Tyrosine-protein phosphatase non-receptor type 5 (P54829 whole entry): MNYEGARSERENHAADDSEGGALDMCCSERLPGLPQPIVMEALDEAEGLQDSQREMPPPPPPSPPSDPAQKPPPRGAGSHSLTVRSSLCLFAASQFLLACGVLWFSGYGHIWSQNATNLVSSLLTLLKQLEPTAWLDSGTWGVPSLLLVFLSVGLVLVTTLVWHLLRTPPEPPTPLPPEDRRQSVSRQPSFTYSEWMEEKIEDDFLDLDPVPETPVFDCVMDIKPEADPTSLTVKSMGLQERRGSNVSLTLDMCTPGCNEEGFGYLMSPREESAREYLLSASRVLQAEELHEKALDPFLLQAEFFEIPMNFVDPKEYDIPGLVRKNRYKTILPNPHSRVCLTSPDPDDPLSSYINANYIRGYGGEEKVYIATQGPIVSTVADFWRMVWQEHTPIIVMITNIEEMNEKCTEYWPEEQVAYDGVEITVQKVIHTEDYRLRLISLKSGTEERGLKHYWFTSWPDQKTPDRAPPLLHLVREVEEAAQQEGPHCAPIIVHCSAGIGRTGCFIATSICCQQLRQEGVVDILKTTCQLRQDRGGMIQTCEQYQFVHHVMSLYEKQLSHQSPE

[19] = target: Dual specificity protein phosphatase 3 (Homo sapiens, UniProt P51452); test: VHR phosphatase inhibition, dose response, selectivity assay for STEP inhibitor project, biochemical (AID 602374); format: functional; conditions: read-out: IC50_Mean
Chain of Dual specificity protein phosphatase 3 (P51452 whole entry): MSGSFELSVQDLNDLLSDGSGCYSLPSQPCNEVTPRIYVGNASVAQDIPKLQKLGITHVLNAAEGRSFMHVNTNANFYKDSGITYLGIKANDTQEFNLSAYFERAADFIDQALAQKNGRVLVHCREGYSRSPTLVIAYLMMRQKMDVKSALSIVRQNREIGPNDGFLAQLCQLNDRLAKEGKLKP

[20] = target: T4, Methionyl-tRNA synthetase, putative (Trypanosoma brucei brucei, UniProt Q38C91); format: functional, Trypanosoma brucei brucei strain 927/4 GUTat10.1
T4 sequence (Q38C91 whole entry): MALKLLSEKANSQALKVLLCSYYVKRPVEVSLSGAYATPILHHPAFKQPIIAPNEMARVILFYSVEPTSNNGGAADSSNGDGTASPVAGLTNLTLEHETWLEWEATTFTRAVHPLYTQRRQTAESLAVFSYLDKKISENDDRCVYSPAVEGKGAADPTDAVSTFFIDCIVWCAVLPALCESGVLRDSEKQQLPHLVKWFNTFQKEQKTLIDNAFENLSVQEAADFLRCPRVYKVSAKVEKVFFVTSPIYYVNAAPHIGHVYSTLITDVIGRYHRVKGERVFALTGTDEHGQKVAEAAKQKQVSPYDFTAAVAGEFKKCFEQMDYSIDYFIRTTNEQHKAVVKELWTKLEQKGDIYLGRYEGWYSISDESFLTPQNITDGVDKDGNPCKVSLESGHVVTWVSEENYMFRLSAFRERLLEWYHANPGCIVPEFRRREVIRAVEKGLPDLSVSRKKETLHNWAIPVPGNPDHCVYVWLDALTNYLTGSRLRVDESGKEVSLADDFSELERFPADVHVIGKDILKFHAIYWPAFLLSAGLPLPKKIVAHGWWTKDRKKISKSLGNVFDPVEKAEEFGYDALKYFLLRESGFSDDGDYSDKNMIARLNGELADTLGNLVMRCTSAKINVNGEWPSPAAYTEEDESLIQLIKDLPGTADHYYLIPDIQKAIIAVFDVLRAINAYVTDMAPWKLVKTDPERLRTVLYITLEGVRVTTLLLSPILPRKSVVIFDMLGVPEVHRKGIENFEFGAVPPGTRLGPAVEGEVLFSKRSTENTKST

[21] = Counterscreen for inhibitors of Trypanosoma brucei methionyl tRNA synthetase (MetRS): Luminescence-based cell-based high throughput dose response assay to identify compounds that are cytotoxic to Jurkat human T lymphocyte cells.; format: functional
[22] = target: T4, Methionyl-tRNA synthetase, putative; format: functional, Trypanosoma brucei brucei strain 927/4 GUTat10.1; remark: listed apart in the source
Beta-galactosidase = Beta-galactosidase (Escherichia coli, UniProt Q8VNN2); test: Dose response counterscreen for EBI2 assay utilizing the enzyme, b-galactosidase.; format: functional
Chain of Beta-galactosidase (Q8VNN2 whole entry): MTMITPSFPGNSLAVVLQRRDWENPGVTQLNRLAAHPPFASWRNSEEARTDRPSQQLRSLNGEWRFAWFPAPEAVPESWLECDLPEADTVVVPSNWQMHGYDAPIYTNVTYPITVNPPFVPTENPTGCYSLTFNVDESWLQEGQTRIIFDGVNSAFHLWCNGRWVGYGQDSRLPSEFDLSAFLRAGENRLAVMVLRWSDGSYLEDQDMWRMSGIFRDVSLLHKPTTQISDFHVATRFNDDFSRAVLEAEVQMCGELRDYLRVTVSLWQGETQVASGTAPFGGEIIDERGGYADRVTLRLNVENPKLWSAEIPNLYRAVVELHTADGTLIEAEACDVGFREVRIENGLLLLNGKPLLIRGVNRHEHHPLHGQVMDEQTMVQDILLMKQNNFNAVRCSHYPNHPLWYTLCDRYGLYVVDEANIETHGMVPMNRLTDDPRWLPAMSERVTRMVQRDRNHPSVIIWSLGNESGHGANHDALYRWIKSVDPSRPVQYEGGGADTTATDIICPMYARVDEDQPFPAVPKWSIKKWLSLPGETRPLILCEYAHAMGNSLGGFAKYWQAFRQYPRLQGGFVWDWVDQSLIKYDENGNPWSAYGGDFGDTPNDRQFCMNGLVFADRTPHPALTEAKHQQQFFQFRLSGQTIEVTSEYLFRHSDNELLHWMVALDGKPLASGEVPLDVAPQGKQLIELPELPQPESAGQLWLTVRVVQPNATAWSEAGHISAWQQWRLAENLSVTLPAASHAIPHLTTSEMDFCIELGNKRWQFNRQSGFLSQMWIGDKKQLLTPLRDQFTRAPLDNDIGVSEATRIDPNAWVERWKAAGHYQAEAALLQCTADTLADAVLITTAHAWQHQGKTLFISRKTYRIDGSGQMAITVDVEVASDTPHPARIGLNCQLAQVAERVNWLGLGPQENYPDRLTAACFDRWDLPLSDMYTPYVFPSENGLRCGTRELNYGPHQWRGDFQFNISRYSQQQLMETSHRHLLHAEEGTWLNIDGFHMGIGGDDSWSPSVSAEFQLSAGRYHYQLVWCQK

T1 sequence (Q9P0U3 whole entry, the tested form may be a part): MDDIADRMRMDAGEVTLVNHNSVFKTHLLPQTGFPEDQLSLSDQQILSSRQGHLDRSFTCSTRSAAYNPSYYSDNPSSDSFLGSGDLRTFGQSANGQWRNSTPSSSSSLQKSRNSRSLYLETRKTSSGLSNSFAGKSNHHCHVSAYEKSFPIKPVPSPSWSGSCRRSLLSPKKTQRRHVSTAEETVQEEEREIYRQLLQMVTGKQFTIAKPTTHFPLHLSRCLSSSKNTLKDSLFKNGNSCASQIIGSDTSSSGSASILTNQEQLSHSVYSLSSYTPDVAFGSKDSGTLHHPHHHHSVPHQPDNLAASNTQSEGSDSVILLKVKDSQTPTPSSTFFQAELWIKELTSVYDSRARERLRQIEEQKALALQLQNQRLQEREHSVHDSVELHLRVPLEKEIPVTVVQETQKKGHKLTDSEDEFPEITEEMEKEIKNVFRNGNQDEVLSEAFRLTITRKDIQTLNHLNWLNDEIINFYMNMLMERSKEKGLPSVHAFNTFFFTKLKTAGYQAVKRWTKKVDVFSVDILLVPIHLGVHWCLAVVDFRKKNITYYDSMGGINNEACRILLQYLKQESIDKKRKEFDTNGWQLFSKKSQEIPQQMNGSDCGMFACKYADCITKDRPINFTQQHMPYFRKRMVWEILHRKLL

IC50 [1]: 68.8 µM (inactive)
IC50 [2]: 19.9 µM (active)
SMILES: COc1cc(NC2=Nc3cccc4cccc2c34)cc(OC)c1OC

SMILES: O=C(Nc1nc2cc3c(cc2s1)OCCO3)c1cccs1
AC50 [3]: 28 µM (active)
AC50 [4]: > 52 µM (inactive)
AC50 [5]: 2.01 µM (active)
AC50 [6]: 26 µM (active)
AC50 [7]: 3.84 µM (active)
AC50 [8]: > 52 µM (inactive)

IC50 [9]: 24.6 µM (inactive)
IC50 [10]: 11.8 µM (active)
SMILES: O=C(OCCNc1nc(-c2ccccc2)nc2ccccc12)c1ccncc1

SMILES: CCN(CC)C(=O)c1ccc(S(=O)(=O)N2CCC(c3nc4ccccc4s3)CC2)cc1
AC50 (INS1): 5.69 µM (active)
IC50 (Protein Wnt-3a): 39.7 µM (inactive)

IC50 [11]: 2.52 µM (active)
SMILES: FC(F)Sc1ccc(NC(=S)N2CCN(c3ccccn3)CC2)cc1

IC50 [12]: 26.9 µM (inactive)
IC50 [13]: 32.7 µM (inactive)
SMILES: Cc1ccc2nc(SCC(=O)N3CCC(Cc4ccccc4)CC3)nc(=O)n2c1

SMILES: O=S(=O)(Nc1nc2ccccc2s1)c1ccc(Cl)s1
AC50 (INS1): 31.8 µM (active)
IC50 [14]: 6.02 µM (active)
EC50 [15]: > 53 µM (inactive)
IC50 [16]: 8.22 µM (active)

SMILES: Cc1ccc(S(=O)(=O)c2cnc3ccc(Cl)cc3c2O)cc1
IC50 [17]: 14.5 µM (active)
IC50 [18]: 39.1 µM (inactive)
IC50 [19]: 26.9 µM (inactive)
IC50 [20]: 119 µM (inactive)
IC50 [21]: 83.4 µM (inactive)
IC50 [22]: 4.9 µM (active)

IC50 (Beta-galactosidase): > 80 µM (inactive)
SMILES: CCOC(=O)c1ccc(S(=O)(=O)N2CCN(C(=O)c3cc4ccccc4o3)CC2)cc1
